Measurements as given in patent US20160304577A1, “GLYCOSYLATED GLYCOPHORIN PEPTIDES” (GLYCOTOPE GMBH, priority 2013, published 2016).
“Also recorded” adds a separate entry of the source. No end group written: not given here.

How the values were obtained:
dendritic cells [1] = assay: Effect of antigen processing inhibitors on presentation of TFα derived from aGPA (flow cytometry, Nemod-TF1); assay type: cell-based, human; details: DCs treated with inhibitor of lysosomal acidification prior to loading with aGPA
Protocol: DCs were pretreated with indicated concentrations of chloroquine (a) and ammonium chloride (b) before aGPA was added. Presentation of TFα was analyzed by flow cytometry using Nemod-TF1. Data are presented as the percentage of the relative presentation which was calculated according to the following formula: (percentage of positive cells incubated with antigen processing inhibitors)/(percentage of positive cells of untreated cells)×(100)). The means of one experiment performed in duplicates are shown.
In order to characterize the processing pathway of aGPA, dendritic cells were treated with inhibitors of lysosomal acidification, chloroquine and ammonium chloride (MHC class II processing) prior to loading. […] These findings verify that aGPA is processed in the cell before TFα is presented on the cell surface.

DCs = assay: Presentation of biotin-conjugated GPA-derived peptides on DCs, fluorescence-labeled streptavidin, flow cytometry; assay type: cell-based, human
Protocol: DCs were loaded with the biotin-conjugated peptides GPA1-9(3TF), GPA9-25(4TF), GPA9-25(6TF), GPA26-43(2TF), GPA34-55(4TF), GPA41-55(3TF), GPA45-55(2TF), GPA48-55(1TF) and GPA48-63(1TF). Presentation was determined by fluorescence-labeled streptavidin. The subpopulations of CD80+CD209+, CD80+CD209− and CD80−CD209− mature DCs were analyzed separately. Mean percentages+SD of one experiment performed in duplicates are shown.
DCs were loaded with the biotin-conjugated peptides. Presentation was determined by fluorescence-labeled streptavidin. The subpopulations CD80+CD209+, CD80+CD209- and CD80−CD209− mature DCs were analyzed separately. Mean percentages+SD of one experiment performed in triplicates are shown.
For that reason the GPA-derived TF-α glycosylated peptides GPA1-9(3TF), GPA9-25(4TF), GPA9-25(6TF), GPA26-43(2TF), GPA34-55(4TF), GPA41-55(3TF), GPA45-55(2TF), GPA48-55(1TF) and GPA48-63(1TF) were employed.
By using four different glycosylation variants of GPA26-43, it was aimed to investigate the effect of TFα-glycosylation on the presentation in more detail.

TFα-specific T cells [2] = assay: IFN-γ ELISPOT, restimulation of B. ovatus-primed T cells with peptide-loaded DCs; assay type: cell-based, human; details: T cells primed with TFα-positive B. ovatus strain
Protocol: PBMCs of a healthy donor were primed with DCs loaded with TFα positive B. ovatus (BO+). Restimulation with GPA26-43(2TF) and GPA34-55(4TF) was analyzed by IFN-γ ELISPOT. The mean numbers of IFN-γ+spots+SEM of one experiment performed in triplicates is shown.
In order to analyze whether DCs loaded with peptide GPA26-43(2TF) or GPA34-55(4TF) can activate TFα-specific T cells, they were used for restimulation of T cells primed with a TFα-positive B. ovatus strain. Restimulation was detected by an IFN-γ ELISPOT assay. […] Since TFα is the only overlapping structure between the TFα-positive B. ovatus strain and the TFα-glycosylated GPA-derived peptides GPA26-43(2TF) and GPA34-55(4TF), it is obvious that the restimulated T cells were TFα-specific. […] This immune response, when elicited in a human being, can protect against cells carrying said carbohydrate structure. In the case of tumor-associated carbohydrate antigens such as TFα, vaccination against and treatment of cancer comprising cells carrying said carbohydrate antigen is possible with these glycosylated glycophorin peptides. Therefore, based on this experiment, GPA-derived TF-α glycosylated peptides are proposed for the use of treating or preventing cancer in human.

TFα-specific T cells [3] = assay: IFN-γ ELISPOT, second restimulation of TFα-specific T cells with aGPA- or GPA-loaded dendritic cells; assay type: cell-based; details: T cells primed with TFα positive B. ovatus strain and restimulated with lysate of TFα positive human cell line
Protocol: PBMCs of a healthy donor were twice primed with DCs loaded with a TFα positive B. ovatus strain (BO+). Restimulation with DCs loaded with lysate of a TFα positive (HC+) or TFα negative (HC−) human cell line was analyzed by IFN-γ ELISPOT. T cells restimulated with TFα positive cells were further cultivated and restimulated in a second round with aGPA- and GPA-loaded DCs, which was analyzed by IFN-γ ELISPOT. The mean numbers of IFN-γ+spots+SEM of one experiment performed in triplicates (1st restimulation) or of four replicates (2nd restimulation) are shown. IFN-γ+spots of PBMCs without restimulation were subtracted. Statistical analysis was performed using 1 way ANOVA (***: P<0.001).
In order to analyze whether asialoglycophorin A (aGPA)-loaded dendritic cells (DCs) have the potential to activate TFα-specific T cells, a T cell culture, which was primed with a TFα positive B. ovatus strain and restimulated with lysate of a TFα positive human cell line, was restimulated in a second round with dendritic cells loaded with either aGPA or glycophorin A (GPA).

dendritic cells [4] = assay: Flow cytometry of TFα presentation on dendritic cells loaded with aGPA or GPA (Nemod-TF1, Nemod-TF2); assay type: cell-based, human
Protocol: GPA- and aGPA-loaded cells were stained with Nemod-TF1 and Nemod-TF2 and analyzed by flow cytometry. The subpopulations of CD80+CD209+, CD80+CD209− and CD80−CD209− cells were analyzed separately. The mean percentages of positive cells+SD of one experiment performed in duplicates are shown.
DCs were loaded with aGPA and GPA for indicated time periods. Presentation of TFα was analyzed on the subpopulations of CD80+CD209+ (a), CD80+CD209− (b) and CD80−CD209− (c) DCs by flow cytometry using Nemod-TF1. Data are presented as mean percentage of positive cells±SD of one experiment performed in duplicates.
In order to analyze the antigen presentation of aGPA in more detail, dendritic cells loaded with aGPA and GPA were analyzed by flow cytometry using anti-TFα antibodies and for co-staining anti-CD80 and anti-CD209 antibodies.
In order to test whether aGPA is unspecifically attached to the cell surface of DCs, aGPA was added 10 min prior to the analysis of surface presentation with the TFα-specific antibody Nemod-TF1 and compared to TFα-presentation after loading times of 1 and 2 d. […] This is important since the presentation on MHC proteins is crucial for activation of TF-α specific T cells.

Cl.N [ammonium chloride]
effect on presentation of TFα derived from aGPA (dendritic cells [1]): blocked the presentation of TFα

CCN(CC)CCCC(C)Nc1ccnc2cc(Cl)ccc12 (stereo not shown) [chloroquine]
effect on presentation of TFα derived from aGPA (dendritic cells [1]): blocked the presentation of TFα

GPA1-9(3TF): biotin-conjugated GPA-derived TF-α glycosylated peptide (SSTTGVAMH; also: 3 TF-α glycans, sites not given here, biotin-conjugated, site not given here)
presentation of peptide on DCs (percentage of positive cells) (DCs): strongest presentation on DCs

GPA26-43(1TFaa33): glycosylation variant of GPA26-43, biotin-conjugated peptide (NDTHKRDT(TF‑α)YAATPRAHEV; also: biotin-conjugated, site not given here)
presentation of peptide on DCs (percentage of positive cells) (DCs): presented at a similar percentage

GPA26-43(1TFaa37): glycosylation variant of GPA26-43, biotin-conjugated peptide (NDTHKRDTYAAT(TF‑α)PRAHEV; also: biotin-conjugated, site not given here)
presentation of peptide on DCs (percentage of positive cells) (DCs): less effectively presented than GPA26-43(1TFaa33) and GPA26-43, but more effectively than GPA26-43(2TF)

GPA26-43(2TF): biotin-conjugated GPA-derived TF-α glycosylated peptide (NDTHKRDTYAATPRAHEV; also: 2 TF-α glycans, sites not given here, biotin-conjugated, site not given here)
presentation of peptide on DCs (percentage of positive cells) (DCs): strongest presentation on DCs; also recorded: better presentation on DCs than GPA34-55(4TF); also recorded: found to be presented on DCs | activation of T cells on restimulation with peptide-loaded DCs (IFN-γ ELISPOT) (TFα-specific T cells [2]): stronger activation of T cells compared to DCs loaded with GPA34-55(4TF)

GPA26-43: the unglycosylated GPA26-43, biotin-conjugated peptide (NDTHKRDTYAATPRAHEV; also: biotin-conjugated, site not given here) [reference compound]
presentation of peptide on DCs (percentage of positive cells) (DCs): presented at a similar percentage

GPA48-63(1TF): biotin-conjugated GPA-derived TF-α glycosylated peptide (VRTVYPPEEETGERVQ; also: 1 TF-α glycan, site not given here, biotin-conjugated, site not given here)
presentation of peptide on DCs (percentage of positive cells) (DCs): strongest presentation on DCs

B1: asialoglycophorin A (protein)
chain: SSTTGVAMHTSTSSSVTKSYISSQTNDTHKRDTYAATPRAHEVSEISVRTVYPPEEETGERVQLAHHFSEPEITLIIFGVMAGVIGTILLISTGIRRLIKKSPSDVKPLPSPDTDVPLSSVEIENPETSDQ
notes: asialoglycophorin A (aGPA)
activation of T cells on restimulation with loaded dendritic cells (IFN-γ ELISPOT) (TFα-specific T cells [3]): visible activation of T cells | percentage of Nemod-TF1- and Nemod-TF2-positive cells (TFα presentation) on loaded DCs (dendritic cells [4]; CD80+CD209+, CD80+CD209− and CD80−CD209− DCs): increased percentage of Nemod-TF1- and Nemod-TF2-positive cells compared to GPA-loaded cells | TFα presentation on DCs when added just before staining (unspecific attachment) (dendritic cells [4]; added 10 min prior to analysis with Nemod-TF1, compared to loading times of 1 and 2 d, all three DC subpopulations): no presentation was found

B2: glycophorin A (protein)
chain: SSTTGVAMHTSTSSSVTKSYISSQTNDTHKRDTYAATPRAHEVSEISVRTVYPPEEETGERVQLAHHFSEPEITLIIFGVMAGVIGTILLISTGIRRLIKKSPSDVKPLPSPDTDVPLSSVEIENPETSDQ
notes: glycophorin A (GPA)
activation of T cells on restimulation with loaded dendritic cells (IFN-γ ELISPOT) (TFα-specific T cells [3]): almost no restimulation
